Results as given in paper PMC12198292, “Advancing in vitro assessment of iodide uptake inhibition: integrating a novel biotransformation pretreatment step” (Archives of Toxicology, 2025).
In brackets after ≈: the same amount, converted by molar mass. Several values for one entry are separate records, joined by “and”; a condition that tells them apart may be missing. Identical values can stand only once. Like-named read-outs stand apart in the source and are kept apart here.

Assays:
NIS [1] = target: T1, NIS (Rattus norvegicus, UniProt Q63008); test: NIS-inhibition assay (iodide uptake, Sandell–Kolthoff reaction) on FRTL-5; format: cell-based; settings: mean ± SD, ≥ 3 independent experiments; 2 h exposure; SK reaction
T1 construct: the endogenously NIS-expressing rat FRTL-5 cell line; host or cells: FRTL-5 (CVCL_0265)
T1 sequence (Q63008 1-618): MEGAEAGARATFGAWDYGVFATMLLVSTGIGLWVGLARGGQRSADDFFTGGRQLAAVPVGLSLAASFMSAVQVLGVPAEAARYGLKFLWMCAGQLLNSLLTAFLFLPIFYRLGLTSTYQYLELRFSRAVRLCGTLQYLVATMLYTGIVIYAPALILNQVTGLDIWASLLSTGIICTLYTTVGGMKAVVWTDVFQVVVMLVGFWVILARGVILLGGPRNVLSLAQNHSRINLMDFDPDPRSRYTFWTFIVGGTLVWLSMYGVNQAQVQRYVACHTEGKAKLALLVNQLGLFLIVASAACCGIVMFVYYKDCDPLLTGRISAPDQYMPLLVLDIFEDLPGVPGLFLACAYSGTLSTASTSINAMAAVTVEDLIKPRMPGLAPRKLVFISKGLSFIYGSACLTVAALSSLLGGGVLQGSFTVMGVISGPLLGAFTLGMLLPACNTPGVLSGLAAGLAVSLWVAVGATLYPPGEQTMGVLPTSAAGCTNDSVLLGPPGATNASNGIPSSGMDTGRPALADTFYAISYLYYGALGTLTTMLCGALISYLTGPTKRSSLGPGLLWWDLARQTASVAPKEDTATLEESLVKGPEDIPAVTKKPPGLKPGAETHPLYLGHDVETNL

[2] = design: method as in PubChem https://pubchem.ncbi.nlm.nih.gov/; settings: ref PubChem https://pubchem.ncbi.nlm.nih.gov/; cited from earlier work
[3] = design: method as in PubChem https://pubchem.ncbi.nlm.nih.gov/; settings: ref PubChem https://pubchem.ncbi.nlm.nih.gov/; cited from earlier work; remark: listed apart in the source
[4] = ref PubChem https://pubchem.ncbi.nlm.nih.gov/; cited from earlier work
FRTL-5 cells = test: Neutral red uptake viability assay, FRTL-5; settings: mean±SD, 2 h exposure
HEK293T NIS C cells = test: Neutral red uptake viability assay, HEK293T NIS C; settings: mean±SD, 2 h exposure
human NIS [5] = target: T2, human NIS (Homo sapiens, UniProt Q92911); test: Biotransformation (BTS, rat S9)-augmented NIS-inhibition assay, HEK293T NIS02; settings: for effect of fully active BTS (W/S9, W/cof) on NIS inhibition versus control setups: two-way ANOVA, p < 0.05
T2 sequence (Q92911 1-643): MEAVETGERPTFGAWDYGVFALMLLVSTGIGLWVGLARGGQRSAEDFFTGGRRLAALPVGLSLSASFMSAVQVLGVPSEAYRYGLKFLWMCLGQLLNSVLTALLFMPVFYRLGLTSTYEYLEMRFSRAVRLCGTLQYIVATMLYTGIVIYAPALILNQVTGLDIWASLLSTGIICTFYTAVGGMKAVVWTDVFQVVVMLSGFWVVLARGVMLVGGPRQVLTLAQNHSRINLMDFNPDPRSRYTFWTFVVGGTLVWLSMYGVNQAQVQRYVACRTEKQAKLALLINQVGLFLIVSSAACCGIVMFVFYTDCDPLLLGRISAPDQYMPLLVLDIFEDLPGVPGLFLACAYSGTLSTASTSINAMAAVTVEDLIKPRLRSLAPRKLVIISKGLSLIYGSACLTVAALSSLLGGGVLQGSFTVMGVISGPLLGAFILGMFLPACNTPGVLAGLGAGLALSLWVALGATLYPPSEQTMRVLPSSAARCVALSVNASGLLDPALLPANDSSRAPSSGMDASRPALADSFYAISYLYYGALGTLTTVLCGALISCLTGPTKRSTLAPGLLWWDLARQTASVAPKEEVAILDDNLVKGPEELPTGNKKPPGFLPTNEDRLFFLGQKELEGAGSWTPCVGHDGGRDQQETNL

human NIS [6] = target: T2, human NIS; test: NIS-inhibition assay (iodide uptake, Sandell–Kolthoff reaction) on HEK293T NIS 02; format: cell-based; design: host or cells: HEK293T (lentiviral transduction, puromycin selection, GFP sorting; lines NIS 02 and NIS C)
human NIS [7] = target: T2, human NIS; test: NIS-inhibition assay (iodide uptake, Sandell–Kolthoff reaction) on HEK293T NIS C; format: cell-based; design: host or cells: HEK293T (lentiviral transduction, puromycin selection, GFP sorting; lines NIS 02 and NIS C); settings: for NIS IC50 HEK293T NIS C: mean ± SD, ≥ 3 independent experiments, 2 h exposure, SK reaction
human NIS [8] = target: T2, human NIS; design: host or cells: HEK293T (lentiviral transduction, puromycin selection, GFP sorting; lines NIS 02 and NIS C); settings: hNIS-HEK293T-EPA, RAIU, cited from earlier work; for IC20: read-out: Data from literature NIS IC20; for IC50: read-out: Data from literature NIS IC50
NIS [9] = target: T1, NIS; settings: FRTL-5, RAIU, ref Buckalew et al., 2020, cited from earlier work; for IC50: read-out: Data from literature NIS IC50
human NIS [10] = target: T2, human NIS
in vitro = settings: human
human NIS [11] = target: T2, human NIS; design: method as in Dong et al., 2019; settings: MCF7hNIS; SK; ref Dong et al., 2019; read-out: Data from literature NIS IC20; cited from earlier work
human NIS [12] = target: T2, human NIS; design: host or cells: HEK293T (lentiviral transduction, puromycin selection, GFP sorting; lines NIS 02 and NIS C); method as in Dong et al., 2019; settings: hNIS-HEK293T-EPA; SK; ref Dong et al., 2019; cited from earlier work
[13] = mean ± SD, ≥ 3 independent experiments, 2 h exposure, SK reaction, read-out: NIS IC50 HEK293T NIS 02
[14] = mean ± SD, ≥ 3 independent experiments, 2 h exposure, SK reaction

Row | Compound | IC50 (NIS [1]) | log Kow [2] | Henry‘s law [3] | solubility in water [4] [µg/mL] | NR IC20 FRTL-5 (FRTL-5 cells) | NR IC20 HEK293T NISC (HEK293T NIS C cells) | effect of fully active BTS (W/S9, W/cof) on NIS inhibition versus control setups (human NIS [5]) | IC50 (human NIS [6]; [13]) | NIS IC50 HEK293T NIS C (human NIS [7]) | Data from literature NIS IC50 (human NIS [8]; ref Wang et al., 2018) | IC50 (NIS [9]) [µM] | IC50 (human NIS [8]; ref Buckalew et al., 2020) [µM] | IC50 (human NIS [8]; ref US-EPA, 2024) [µM] | effect of fully active BTS (W/S9, W/cof) on NIS inhibition versus control setups (human NIS [10]) | NIS IC50 FRTL-5 (NIS [1]) | NIS IC50 HEK293T NIS 02 (human NIS [6]; [14]) | Data from literature NIS IC50 (human NIS [8]; ref US-EPA, 2024) | other results
1 | COc1ccc(C(c2ccc(OC)cc2)C(Cl)(Cl)Cl)cc1 [MET, Methoxychlor, reference compound] | 218 ± 4.3 µM | 5.08 | 2.03x10^-7 atm- m^3/mol | 0.04 (≈ 0.000116 mM) | 218±4.3 / n.e. | n.e./ n.e. | no biotransformation-related effect changes were detected | 11 ± 8.7 µM | n.e and n.e./ n.e. | n.e. | – | – | – | – | – | – | – | IC20 (human NIS [5]; read-out: NIS inhibition IC20 D S9, W/cof, 5 h preincubation with denatured S9 and cofactors, three independent experiments): 20.7 ± 19.5 µM; IC20 (human NIS [5]; read-out: NIS inhibition IC20 W/O S9, W/cof, 5 h preincubation without S9 fraction, with all cofactors, three independent experiments): > 500 µM; IC20 (human NIS [8]; ref US-EPA, 2024): 12.6 µM
2 | O=S(=O)(O)C(F)(F)C(F)(F)C(F)(F)C(F)(F)C(F)(F)C(F)(F)C(F)(F)C(F)(F)F [PFOS, Perfluorooctane sulfonate] | 9.3 µM and 9.31 µM | -1.08 | 4.34x10^-7 atm- m^3/mol | – | n.e. | n.e. / n.e. | no significant differences were observed | 30.9 ± 21.7 µM | n.e and n.e. / n.e. | – | 0.4 | 1.3 | 20.5 | – | – | – | – | IC50 (human NIS [8]; ref Wang et al., 2018): 16.6 µM; IC50 (human NIS [8]; ref Wang et al., 2019): 17 µM
3 | CCOc1cc(C(C)(C)C)ccc1C1COC(c2c(F)cccc2F)=N1 (centres unmarked) [ETX, Etoxazole, reference compound] | – | – | – | – | – | – | – | – | – | – | – | – | – | no biotransformation-related effect changes were detected | – | – | – | IC20 (in vitro): 28.8 µM; IC20 (human NIS [5]; read-out: NIS inhibition IC20 SM): 0.61 µM; IC50 (human NIS [6]; NIS IC50 HEK293T NIS 02): 7.1 ± 4.3 µM; IC50 (human NIS [7]): 11.7 ± 8 µM
4 | O=C(O)C(F)(F)C(F)(F)C(F)(F)C(F)(F)C(F)(F)C(F)(F)C(F)(F)F [PFOA, Perfluorooctanoic acid] | – | – | – | 3300 (≈ 7.97 mM) | n.e. / n.e. | n.e./ n.e. | – | – | n.e and n.e./ n.e. | n.e. | 25.1 | 75.9 | – | – | n.e and n.e. / n.e. | n.e and n.e. / n.e. | n.e. | –
5 | Cn1cc[nH]c1=S [MMI, Methimazole, reference compound] | – | -0.34 | – | 200000 (≈ 1750 mM) | n.e. / n.e. | n.e./ n.e. | – | – | n.e and n.e./ n.e. | – | – | – | – | – | n.e and n.e. / n.e. | n.e and n.e./ n.e. | n.e. | Data from literature NIS IC50 (NIS [9]): n.e.; Data from literature NIS IC50 (human NIS [8]; ref Buckalew et al., 2020): n.e.; Data from literature NIS IC50 (human NIS [8]; ref Hallinger et al., 2017): n.e.; Data from literature NIS IC50 (human NIS [8]; ref Wang et al., 2019): n.e.
6 | CCCCOC(=O)c1ccccc1C(=O)OCCCC [DBP, Dibutylphthalate] | 92.3 ± 11.8 µM | 4.5 | 1.81x10^-6 atm- m^3/mol | – | – | – | – | 51.7 µM and 52 µM | n.e and n.e. | n.e. | – | – | 26.9 | statistically significant reduction in NIS inhibition | – | – | – | IC20 (human NIS [10]): 5.57 ± 4.6 µM; IC20 (human NIS [11]): 63.1 µM; IC20 at 2 h (in vitro): 42 µM; increase of IC20 by preincubation in fully active BTS setup compared to the denatured BTS setup (human NIS [5]; W/S9, W/cof vs D S9, W/cof): more than ninefold; IC20 (human NIS [8]; ref Dong et al., 2019): 26.9 µM; IC20 (human NIS [8]; ref Hallinger et al., 2017): 191 µM; Data from literature NIS IC50 (human NIS [12]): n.e.
